What all share (format): in vivo
Data set [1] has as its system Capsella bursa-pastoris. As to the kind of experiment: Weeding effect in pre-emergence stage. The conditions noted are these: 30 g/ha, 4 weeks. The method, then:
(§1) The activity level criteria for plant damage (i.e., growth control rate) are as follows:
(§2) The aforementioned seeds of monocotyledonous and dicotyledonous weeds and main crops were put into a plastic pot loaded with soil and covered with 0.5-2 cm soil. The test compounds of the present invention was dissolved with acetone, then added with tween 80, diluted by a certain amount of water to reach a certain concentration, and sprayed immediately after sowing. The obtained seeds were incubated for 4 weeks in the greenhouse after spraying and the test results were observed. It was observed that the herbicide mostly had excellent effect at the application rate of 500, 250, 125, 60, 30, 15, 7.5 g/ha, especially to weeds such as Echinochloa crusgalli. Digitaria sanguinalis and Abutilon theophrasti, etc. And many compounds had good selectivity for corn, cotton, wheat, rice, soybean, and peanut etc. In addition, evaluate the weed control effect with the above activity standard level.

Data set [2] concerns Amaranthus retroflexus. The data set is described as follows: Weeding effect in pre-emergence stage. Conditions: 30 g/ha, 4 weeks. As to the method:
as §1, §2

The test system of data set [3] is Setaria viridis. The data set is described as follows: Weeding effect in pre-emergence stage. Conditions: 30 g/ha, 4 weeks. As to the method: as §1, §2
Data set [4] relates to Abutilon theophrasti. The data set is described as follows: Weeding effect in pre-emergence stage. Conditions: 30 g/ha, 4 weeks. As to the method: as §1, §2
Data set [5] has as its system Veronica didyma Tenore. As to the kind of experiment: Weeding effect in pre-emergence stage. Conditions: 30 g/ha, 4 weeks. The method, then: as §1, §2
Data set [6] relates to Descurainia sophia. The data set is described as follows: Weeding effect in pre-emergence stage. The conditions noted are these: 30 g/ha, 4 weeks. The method, then: as §1, §2
The test system of data set [7] is cotton. As to the kind of experiment: Pre-emergence stage, crop selectivity. Conditions: 30 g/ha, 4 weeks. The method, then:
as §1, §2

Data set [8] concerns corn. The data set is described as follows: Pre-emergence stage, crop selectivity. The conditions noted are these: 30 g/ha, 4 weeks. As to the method:
as §1, §2

Data set [9] relates to Soybeans. The data set is described as follows: Pre-emergence stage, crop selectivity. The conditions noted are these: 30 g/ha, 4 weeks. The method, then: as §1, §2
The subject of data set [10] is Peanut. The data set is described as follows: Pre-emergence stage, crop selectivity. The conditions noted are these: 30 g/ha, 4 weeks. As to the method:
as §1, §2

Data set [11] has as its system Echinochloa crusgalli. The data set is described as follows: Weeding effect in post-emergence stage. Conditions: Dose 15 g/ha; level of fresh weight growth control rate. The gist of the method:
(§3)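 Weeds were treated post-emergence at 2-3 leaves with compound doses from 7.5 up to 500 g/ha, formulated in acetone–Tween 80 with methyl oleate synergist. Efficacy was assessed as growth control after 3 weeks.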

Data set [12] has as its system Setaria viridis. As to the kind of experiment: Weeding effect in post-emergence stage. The conditions noted are these: Dose 15 g/ha; level of fresh weight growth control rate. The gist of the method:
as §3

Data set [13] relates to Abutilon theophrasti. As to the kind of experiment: Weeding effect in post-emergence stage. The conditions noted are these: Dose 15 g/ha; level of fresh weight growth control rate. The method, boiled down: as §3
Data set [14] relates to Eleusine indica. As to the kind of experiment: Weeding effect in post-emergence stage. The conditions noted are these: Dose 15 g/ha; level of fresh weight growth control rate. The gist of the method: as §3
Data set [15] deals with Digitaria sanguinalis. As to the kind of experiment: Weeding effect in post-emergence stage. Conditions: Dose 15 g/ha; level of fresh weight growth control rate. The method, boiled down:
as §3

The test system of data set [16] is Alopecurus japonicus. The data set is described as follows: Weeding effect in post-emergence stage. The conditions noted are these: Dose 15 g/ha; level of fresh weight growth control rate. The gist of the method: as §3

`CC(C)OC(=O)[C@@H](C)O/N=C/c1cc(-n2c(=O)cc(C(F)(F)F)n(C)c2=O)c(F)cc1Cl` [199(R)]: the “activity level (growth control rate) Capsella bursa-pastoris” value in [1] is reported as 5 (Level 5: growth control rate is above 85%). The “activity level (growth control rate) Amaranthus retroflexus” value in data set [2] is listed as 5 (Level 5: growth control rate is above 85%). The “activity level (growth control rate) Setaria viridis” value in data set [3] is 5 (Level 5: growth control rate is above 85%). Moreover, in data set [4], the “activity level (growth control rate) Abutilon theophrasti” value is 5 (Level 5: growth control rate is above 85%). The “activity level (growth control rate) Veronica didyma Tenore” value in [5] is given as 5 (Level 5: growth control rate is above 85%). The “activity level (growth control rate) Descurainia sophia” value in [6] was 5 (Level 5: growth control rate is above 85%). Moreover, the “plant damage level Cotton” value in [7] was 0 (Level 0: growth control rate is less than 5%). Besides, the “plant damage level Corn” value in data set [8] is 0 (Level 0: growth control rate is less than 5%). Also, in data set [9], the “plant damage level Soybeans” value is given as 0 (Level 0: growth control rate is less than 5%). The “plant damage level Peanut” value in data set [10] is on record as 0 (Level 0: growth control rate is less than 5%). In addition, in data set [11], the “Weeding effect in post-emergence stage, Echinochloa crusgalli” value (from here on “Weeding effect … Echinochloa crusgalli”) was 5 (Level 5: growth control rate is above 85%). Besides, the “Weeding effect in post-emergence stage, Setaria viridis” value (“Weeding effect … Setaria viridis” for short) in data set [12] was 5 (Level 5: growth control rate is above 85%). In addition, in [13], the “Weeding effect in post-emergence stage, Abutilon theophrasti” value (shortened to “Weeding effect … Abutilon theophrasti”) was 5 (Level 5: growth control rate is above 85%). Moreover, the “Weeding effect in post-emergence stage, Eleusine indica” value (“Weeding effect … Eleusine indica” for short) in data set [14] was 5 (Level 5: growth control rate is above 85%). Besides, the “Weeding effect in post-emergence stage, Digitaria sanguinalis” value (shortened to “Weeding effect … Digitaria sanguinalis”) in data set [15] was 5 (Level 5: growth control rate is above 85%). For the same compound, the “Weeding effect in post-emergence stage, Alopecurus japonicus” value (from here on “Weeding effect … Alopecurus japonicus”) in data set [16] is recorded as 5 (Level 5: growth control rate is above 85%).
For the compound `C=CCOC(=O)[C@@H](C)O/N=C/c1cc(-n2c(=O)cc(C(F)(F)F)n(C)c2=O)c(F)cc1Cl` [208(R)], the “activity level (growth control rate) Capsella bursa-pastoris” value in [1] is on record as 5 (Level 5: growth control rate is above 85%). In [2], the “activity level (growth control rate) Amaranthus retroflexus” value was 5 (Level 5: growth control rate is above 85%). Moreover, in [3], the “activity level (growth control rate) Setaria viridis” value is 5 (Level 5: growth control rate is above 85%). Besides, the “activity level (growth control rate) Abutilon theophrasti” value in data set [4] is 5 (Level 5: growth control rate is above 85%). The “activity level (growth control rate) Veronica didyma Tenore” value in data set [5] was 5 (Level 5: growth control rate is above 85%). Also, the “activity level (growth control rate) Descurainia sophia” value in data set [6] was 5 (Level 5: growth control rate is above 85%). Also, in [7], the “plant damage level Cotton” value was 0 (Level 0: growth control rate is less than 5%). Also, the “plant damage level Corn” value in data set [8] is 0 (Level 0: growth control rate is less than 5%). Besides, the “plant damage level Soybeans” value in [9] is 0 (Level 0: growth control rate is less than 5%). The “plant damage level Peanut” value in data set [10] is 0 (Level 0: growth control rate is less than 5%). Besides, the “Weeding effect … Echinochloa crusgalli” value in data set [11] is recorded as 5 (Level 5: growth control rate is above 85%). For the same compound, the “Weeding effect … Setaria viridis” value in [12] was 5 (Level 5: growth control rate is above 85%). For the same compound, in [13], the “Weeding effect … Abutilon theophrasti” value is 5 (Level 5: growth control rate is above 85%). Further, in data set [14], the “Weeding effect … Eleusine indica” value is reported as 5 (Level 5: growth control rate is above 85%). In data set [15], the “Weeding effect … Digitaria sanguinalis” value is 5 (Level 5: growth control rate is above 85%). Further, in data set [16], the “Weeding effect … Alopecurus japonicus” value is on record as 5 (Level 5: growth control rate is above 85%).
On to `C[C@@H](O/N=C/c1cc(-n2c(=O)cc(C(F)(F)F)n(C)c2=O)c(F)cc1Cl)C(=O)OCCF` [216(R)], for which the “activity level (growth control rate) Capsella bursa-pastoris” value in data set [1] is reported as 5 (Level 5: growth control rate is above 85%). For the same compound, the “activity level (growth control rate) Amaranthus retroflexus” value in data set [2] is listed as 5 (Level 5: growth control rate is above 85%). In data set [3], the “activity level (growth control rate) Setaria viridis” value is 5 (Level 5: growth control rate is above 85%). For the same compound, the “activity level (growth control rate) Abutilon theophrasti” value in data set [4] is recorded as 5 (Level 5: growth control rate is above 85%). Further, the “activity level (growth control rate) Veronica didyma Tenore” value in [5] is 5 (Level 5: growth control rate is above 85%). Further, the “activity level (growth control rate) Descurainia sophia” value in data set [6] is recorded as 5 (Level 5: growth control rate is above 85%). In data set [7], the “plant damage level Cotton” value is listed as 0 (Level 0: growth control rate is less than 5%). For the same compound, the “plant damage level Corn” value in data set [8] is given as 0 (Level 0: growth control rate is less than 5%). For the same compound, the “plant damage level Soybeans” value in [9] is 0 (Level 0: growth control rate is less than 5%). Further, the “plant damage level Peanut” value in data set [10] is listed as 0 (Level 0: growth control rate is less than 5%). Besides, the “Weeding effect … Echinochloa crusgalli” value in data set [11] is 5 (Level 5: growth control rate is above 85%). Besides, in data set [12], the “Weeding effect … Setaria viridis” value is given as 5 (Level 5: growth control rate is above 85%). In addition, in [13], the “Weeding effect … Abutilon theophrasti” value is given as 5 (Level 5: growth control rate is above 85%). Moreover, the “Weeding effect … Eleusine indica” value in data set [14] is recorded as 5 (Level 5: growth control rate is above 85%). The “Weeding effect … Digitaria sanguinalis” value in data set [15] is listed as 5 (Level 5: growth control rate is above 85%). Also, the “Weeding effect … Alopecurus japonicus” value in data set [16] was 4 (Level 4: growth control rate is greater than or equal to 60% and less than 85%).
Regarding `CCOC(=O)COC(=O)[C@@H](C)O/N=C/c1cc(-n2c(=O)cc(C(F)(F)F)n(C)c2=O)c(F)cc1Cl` [239(R)], in [1], the “activity level (growth control rate) Capsella bursa-pastoris” value is on record as 5 (Level 5: growth control rate is above 85%). Also, the “activity level (growth control rate) Amaranthus retroflexus” value in data set [2] was 5 (Level 5: growth control rate is above 85%). Besides, the “activity level (growth control rate) Setaria viridis” value in [3] was 5 (Level 5: growth control rate is above 85%). Further, in data set [4], the “activity level (growth control rate) Abutilon theophrasti” value is given as 5 (Level 5: growth control rate is above 85%). Further, the “activity level (growth control rate) Veronica didyma Tenore” value in data set [5] is on record as 5 (Level 5: growth control rate is above 85%). The “activity level (growth control rate) Descurainia sophia” value in [6] was 5 (Level 5: growth control rate is above 85%). Also, in [7], the “plant damage level Cotton” value is on record as 0 (Level 0: growth control rate is less than 5%). The “plant damage level Corn” value in data set [8] is on record as 0 (Level 0: growth control rate is less than 5%). Further, the “plant damage level Soybeans” value in data set [9] is recorded as 0 (Level 0: growth control rate is less than 5%). Also, the “plant damage level Peanut” value in [10] is given as 0 (Level 0: growth control rate is less than 5%). Further, the “Weeding effect … Echinochloa crusgalli” value in data set [11] is given as 5 (Level 5: growth control rate is above 85%). Also, the “Weeding effect … Setaria viridis” value in data set [12] is 5 (Level 5: growth control rate is above 85%). In addition, in data set [13], the “Weeding effect … Abutilon theophrasti” value is 5 (Level 5: growth control rate is above 85%). Besides, the “Weeding effect … Eleusine indica” value in data set [14] is listed as 5 (Level 5: growth control rate is above 85%). In addition, the “Weeding effect … Digitaria sanguinalis” value in data set [15] is given as 5 (Level 5: growth control rate is above 85%). Further, the “Weeding effect … Alopecurus japonicus” value in data set [16] is listed as 5 (Level 5: growth control rate is above 85%).

For the origin of these results see patent publication US20230111310A1, “CARBOXYLIC ACID DERIVATIVE-SUBSTITUTED IMINO ARYL COMPOUND, PREPARATION METHOD THEREFOR, HERBICIDAL COMPOSITION AND USE THEREOF” (Qingdao Kingagroot Chemical Compound Co., Ltd., priority 2020, published 2023).
